Test results from US9744186B2 (priority 2012, dated 2017).

Tests used:
HCV luciferase replicon [1] = assay: Reversal of anti-HCV activity by exogenous nucleosides; format: cell-based, hepatitis C virus (HCV); conditions: 48 h
Experimental: After 48 hours, the cells were lysed, and the total luciferase activity was determined. […] Where indicated, either 50 μM cytidine (C) or 50 μM 2′-deoxycitidine (dC) was also included.
The cells were plated, incubated with drug, and luciferase activity assayed essentially as described herein above. The incubation with drug was for 48 h.

HCV luciferase replicon [2] = assay: HCV luciferase replicon IC50 assay in Huh7 cells; conditions: for IC50: Hepatitis C virus, Huh-7, 48 h, Huh7 cells containing HCV luciferase replicon, cells exposed to drug for 48 h; for Therapeutic Index (TC50/IC50): TC50 in Huh7 / IC50 HCV replicon, 48 h
Experimental: Plating Cells: The Luciferase replicon cell line was passaged when it was at about 70% confluency. The cells were counted by using a hemocytometer and diluted to 1×10^5 cells per mL in DMEM+10% FBS+[…] G415. The cells were plated as follows: 100 μL of the cells (10,000 cells) per well in a white-walled 96-well plate. The cells were allowed to attach for 24 hours at 37° C.
(§1) Treating the cells: Media (DMEM+2% FBS) was pre-warmed to 37° C. […] The 96-well plate was removed from the 37° C. incubator, and the media replaced on the plate with the serial dilutions of the test drug. The plate was then returned to 37° C. for 48 h.
Luciferase Assay: The Bright-Glo reagent (Promega Corporation, Madison, Wis.) was removed from the −80° C. freezer and allowed to thaw it at 4° C. in the dark. The amount of reagent necessary for the experiment (3.65 mL) was removed, and the remaining reagent was returned to −80° C. The Glo Lysis Buffer and the Bright Glow reagent were allowed to warm to room temperature for 30 min in the dark. The 96 well plate was removed from the incubator and the cells to allowed cool to room temperature for 30 min. The media was removed from the cells, and each well was gently washed in 100 μL of phosphate buffered saline (PBS). The PBS was removed and then 50 μL of the Glo Lysis Buffer was added to each well, followed by gently rocking the plate for 15 min at room temperature in the dark to ensure complete cell lysis. To each well of the 96-well plate was added 50 μL of the Bright Glo reagent and it was mixed well with the lysate. The plate was inserted into a GloMax 96 plate reader and allowed to sit for 5 min in the dark for the luciferase reaction to reach a steady state. The luminescence on the plate was read by using the pre-installed “Bright Glo” Promega program (Synergy Software) and the data were collected and saved. The data were fit to a 4 parameter logistic curve using Kaleidagraph using the following equation: 100/(1+(x/m3)^m4).
The data in Table 1 were determined for cells exposed to drug for 48 h. The IC50 is the concentration of each compound necessary to inhibit the replication of the HCV luciferase replicon to 50%.
That is, the cells were exposed to drug for 2 h at 37° C., followed by 46 h at 37° C. or incubated in the presence of drug for 48 h at 37° C.

Huh7 cells [3] = assay: in vitro; conditions: read-out: TC50; control Huh7 cells; 48 h drug exposure; MTS
Experimental: (§2) Plating Cells: The Huh7 cell line was passaged when it was at about 70% confluency. The cells were counted using a hemocytometer, followed by dilution of the cells to 0.5×10^5 cells per mL in DMEM+10% FBS. The cells were plated at 100 μL (5,000 cells) per well in a clear 96-well plate. The cells were allowed to attach for 24 hours at 37° C.
(§3) Treating the cells: The media (DMEM media without phenol red+2% FBS media) was pre-warmed to 37° C. […] This provided a final DMSO concentration of 0.5%. The 100 mM stock of 3,5-dichlorobenzoic acid was diluted in DMEM without phenol red+2% FBS to a concentration of 0.5 mM. The working 0.5 mM diluted test drugs were serially diluted in DMEM without phenol red+2% FBS+0.5% DMSO in order to maintain a constant concentration of DMSO in each condition. The 96-well plate was removed from the 37° C. incubator, and the media on the plate was replaced with media containing diluted test drug.
(§4) MTS Assay: The reagents from CellTiter 96 kit (Promega Corporation, Madison, Wis.) were thawed at room temperature in the dark for 1 h. The 96-well plate was removed from the 37° C. incubator at 48 h after drug treatment. 20 μL of the combined MTS/PMS reagent to each well of the plate, mixed, and the plate returned to 37° C. The absorbance of each well at 490 nm and 650 nm was determined using the Flexstation 3 microplate reader in endpoint mode every hour for 3 h. The solutions in the wells were mixed prior to each reading. The data were fit to the Emax model: y=(Emax*x)/(TC50+x), where Emax is the maximum inhibition and TC50 is the inhibitory dose 50%. Alternatively, the data can be fit to the Emax sigmoidal model: y=(Emax*x^slope)/(TC50^slope+x^slope), where slope is the Hill Slope.

Huh7 cells [4] = assay: TC50 MTS assay with human cancer cell lines: Huh7; format: cell-based; conditions: 96 h drug treatment
Experimental: (§5) Plating Cells: The Huh7, HEPG2, HEK293, MCF-7, PK9, RPK9, or BxPC3 cells were passaged when they were about 70% confluent. The cells were counted using a hemocytometer, and then diluted cells to 0.5×10^5 cells per mL in DMEM+10% FBS. 100 µL of the cells (5,000 cells) were plated per well in a clear 96-well plate. The cells were allowed to attach for 24 hours at 37° C.
(§6) Treating the cells: Pre-warm the DMEM media without phenol red+2% FBS media to 37° C. […] This will bring the final DMSO concentration to 0.5%. Use these 0.5 mM dilutions to further serially the drugs in DMEM without phenol red+2% FBS+0.5% DMSO. This will keep the concentration of DMSO in each condition identical. Remove the 96-well plate from the 37° C. incubator. Replace the media on the plate with the dilutions of the drugs. Stagger these treatments by 1 h and write the treatment time on each set of plates. Return to 37° C. for 48 h or 96 h as indicated.
as §4, with “Fit Data” for “The data were fit”, “Alternatively, fit” for “Alternatively,”, “data” for “data can be fit”
(§7) Each TC50 was the average value of three measurements as described herein. […] The RPK9 cells are deficient in deoxycytidine kinase (“dCK”) activity, an enzyme required for the initial phosphorylation of dFdC to dFdCMP (see FIG. 2).

[5] = TC50 MTS assay with human cancer cell lines: MCF-7; format: cell-based; conditions: MCF-7 cells, 96 h drug treatment
Experimental: as §5, §6
as §4, with “Fit Data” for “The data were fit”, “Alternatively, fit” for “Alternatively,”, “data” for “data can be fit”
as §7

[6] = TC50 MTS assay with human cancer cell lines: HEK293; format: cell-based; conditions: HEK293 cells, 96 h drug treatment
Experimental: as §5, §6
as §4, with “Fit Data” for “The data were fit”, “Alternatively, fit” for “Alternatively,”, “data” for “data can be fit”
as §7

[7] = Compound solubility in media; format: physicochemical; conditions: DMEM+2% FBS cell culture media, 37 °C, plasma or biological fluid, kinetic from dmso stock; DMEM+2% FBS media
Experimental: as §1

[8] = TC50 MTS assay with human cancer cell lines: HEPG2; format: cell-based; conditions: HEPG2 cells, 96 h drug treatment
Experimental: as §5, §6
as §4, with “Fit Data” for “The data were fit”, “Alternatively, fit” for “Alternatively,”, “data” for “data can be fit”
as §7

in vitro = assay: in vitro
Experimental: as §2, §3, §4

hENT1 = assay: TC50 MTS assay with human cancer cell lines: Huh7; format: cell-based; conditions: human, Huh7 cells; 48 h drug treatment; 10 μM S-(4-nitrobenzyl)-6-thioinosine (hENT1 inhibitor) added; read-out: TC50 (μM) in Huh7 cells NBTI
Experimental: as §5, §6
as §4, with “Fit Data” for “The data were fit”, “Alternatively, fit” for “Alternatively,”, “data” for “data can be fit”
as §7

[9] = TC50 MTS assay with human cancer cell lines: Huh7; format: cell-based; conditions: human, Huh7 cells; 48 h drug treatment; no hENT1 inhibitor; read-out: TC50 (μM) in Huh7 cells Control
Experimental: as §5, §6
as §4, with “Fit Data” for “The data were fit”, “Alternatively, fit” for “Alternatively,”, “data” for “data can be fit”
as §7

| SMILES | IC50 (HCV luciferase replicon [2]) | Therapeutic Index (TC50/IC50) (HCV luciferase replicon [2]) | solubility [7] | CC50 at 48 h (in vitro) | other results |
| --- | --- | --- | --- | --- | --- |
| O=C(O)c1cc(Cl)cc(Cl)c1 [3,5-dichlorobenzoic acid, reference compound] | – | – | – | – | effect on the HCV luciferase replicon (HCV luciferase replicon [1]; up to 500 μM): little effect |
| COc1cccc(OC)c1C(=O)Nc1ccn([C@@H]2O[C@H](CO)[C@@H](O)C2(F)F)c(=O)n1 [Compound G2DB, N^4-(2,6-Dimethoxybenzoyl)gemcitabine] | 0.451 ± 0.037 µM | 10155 | – | – | CC50 (Huh7 cells [3]): 4580 ± 1100 µM |
| COc1cc(OC)cc(C(=O)Nc2ccn([C@@H]3O[C@H](CO)[C@@H](O)C3(F)F)c(=O)n2)c1 [Compound G3DB, N^4-(3,5-Dimethoxybenzoyl)gemcitabine] | 0.0734 ± 0.012 µM | 13100 | > 500 µM | – | reversal of the inhibition of the HCV luciferase replicon by deoxycytidine and cytidine (HCV luciferase replicon [1]; drug 1000, 100 or 25 nM, 50 μM cytidine or 2′-deoxycitidine): reversal; CC50 (Huh7 cells [4]): 18.5 ± 5.32 µM; CC50 (Huh7 cells [3]): 962 ± 110 µM; CC50 at 96 h [5]: 1.57 ± 0.338 µM; CC50 at 96 h [6]: 4.02 ± 0.79 µM; CC50 at 96 h [8]: 3.86 ± 1.42 µM |
| O=C(Nc1ccn(C2O[C@H](CO)[C@@H](O)C2(F)F)c(=O)n1)c1ccc(Cl)cc1Cl (stereo partly drawn) [VV-006] | 0.0775 ± 0.007 µM | >1290 | < 500 µM | > 100 µM | – |
| O=C(Nc1ccn(C2O[C@H](CO)[C@@H](O)C2(F)F)c(=O)n1)c1ccc(Cl)c(Cl)c1 (stereo partly drawn) [VV-007] | 0.0174 ± 0.0018 µM | >5750 | > 500 µM | > 100 µM | – |
| COc1c(Cl)cc(C(=O)Nc2ccn(C3O[C@H](CO)[C@@H](O)C3(F)F)c(=O)n2)cc1Cl (stereo partly drawn) [VV-012] | 0.0193 ± 0.0016 µM | >5180 | > 500 µM | > 100 µM | – |
| COc1ccc(C(=O)Nc2ccn(C3O[C@H](CO)[C@@H](O)C3(F)F)c(=O)n2)cc1 (stereo partly drawn) [VV-013] | 0.06 ± 0.0082 µM | 9530 | > 500 µM | 572 ± 73 µM | – |
| COc1ccc(C(=O)Nc2ccn(C3O[C@H](CO)[C@@H](O)C3(F)F)c(=O)n2)c(OC)c1OC (stereo partly drawn) [VV-022] | 0.0346 ± 0.0035 µM | 8670 | > 500 µM | 300 ± 39 µM | – |
| O=C(Nc1ccn(C2O[C@H](CO)[C@@H](O)C2(F)F)c(=O)n1)c1ccc(Cl)cc1 (stereo partly drawn) [VV-033H] | 0.0376 ± 0.0054 µM | 3670 | – | 138 ± 28 µM | – |
| Cc1ccc(C(=O)Nc2ccn(C3O[C@H](CO)[C@@H](O)C3(F)F)c(=O)n2)cc1 (stereo partly drawn) [VV-036] | 0.0431 ± 0.0044 µM | 7650 | – | – | CC50 at 48 h (hENT1): 240 ± 40 µM; CC50 at 48 h [9]: 329 ± 57 µM |
| CCc1ccc(C(=O)Nc2ccn(C3O[C@H](CO)[C@@H](O)C3(F)F)c(=O)n2)cc1 (stereo partly drawn) [VV-038] | 0.0584 ± 0.0099 µM | 8430 | – | – | CC50 at 48 h (hENT1): 360 ± 80 µM; CC50 at 48 h [9]: 492 ± 58 µM |
| NC(=O)c1ncn([C@@H]2O[C@H](CO)[C@@H](O)[C@H]2O)n1 [ribavirin, reference compound] | 51.6 ± 2.08 µM | 10.2 | > 500 µM | 527 ± 68.2 µM | – |
